# Like-named read-outs stand apart in the source and are kept apart here.
# How the values were obtained:
# Protein-B = assay: Cysteine probe labeling after IMiD pretreatment, PBMC lysates (Table 4); format: binding
# Protein-C = assay: as above; format: binding
# Protein-A = settings: PBMC lysates
# CRBN-287 = CRBN-287 (Homo sapiens, UniProt Q96SW2); assay: Cysteine probe labeling after IMiD pretreatment, PBMC lysates (Table 4); format: binding; set-up: endogenous in cells; host or cells: PBMC lysates; settings: read-out: inhibition of cysteine probe labeling, CRBN-287
# CRBN-318 = CRBN-318 (Homo sapiens, UniProt Q96SW2); assay: as above; format: binding; set-up: endogenous in cells; host or cells: PBMC lysates; settings: read-out: inhibition of cysteine probe labeling, CRBN-318
# Sequence of CRBN-318 (Q96SW2 whole entry): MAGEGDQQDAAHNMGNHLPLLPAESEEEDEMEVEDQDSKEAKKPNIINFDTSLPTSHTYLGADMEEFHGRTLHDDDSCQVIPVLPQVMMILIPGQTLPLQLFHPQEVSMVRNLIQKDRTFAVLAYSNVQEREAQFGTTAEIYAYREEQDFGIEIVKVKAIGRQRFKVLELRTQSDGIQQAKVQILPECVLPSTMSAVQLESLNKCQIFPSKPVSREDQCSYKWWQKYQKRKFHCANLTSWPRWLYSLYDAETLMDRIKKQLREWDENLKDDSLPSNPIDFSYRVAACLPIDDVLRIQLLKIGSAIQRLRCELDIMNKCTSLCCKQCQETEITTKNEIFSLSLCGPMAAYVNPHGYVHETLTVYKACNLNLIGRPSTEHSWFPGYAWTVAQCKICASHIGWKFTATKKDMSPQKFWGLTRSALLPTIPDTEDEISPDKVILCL
# Sequence of CRBN-287 (Q96SW2 whole entry): as above
compound,measurement,setting,value
Nc1cccc2c1C(=O)N(C1CCC(=O)NC1=O)C2=O (stereo not drawn) [Pomalidomide],"inhibition of cysteine probe labeling, Protein-B",Protein-B; 20 μM,0
same,"inhibition of cysteine probe labeling, Protein-B",Protein-B; 100 μM,14
same,"inhibition of cysteine probe labeling, Protein-B",Protein-B; 500 μM,0
same,"inhibition of cysteine probe labeling, Protein-C",Protein-C; 20 μM,10
same,"inhibition of cysteine probe labeling, Protein-C",Protein-C; 100 μM,1
same,"inhibition of cysteine probe labeling, Protein-C",Protein-C; 500 μM,10
same,"inhibition of cysteine probe labeling, Protein-A",Protein-A; 20 μM,8
same,"inhibition of cysteine probe labeling, Protein-A",Protein-A; 100 μM,10
same,"inhibition of cysteine probe labeling, Protein-A",Protein-A; 500 μM,13
same,inhibition at 100 µM,CRBN-287,70%
same,inhibition at 500 µM,CRBN-287,75%
same,inhibition at 20 µM,CRBN-318,59%
O=C1CCC(N2Cc3c(OCc4ccc(CN5CCOCC5)cc4)cccc3C2=O)C(=O)N1 (stereo not drawn) [CC-220],"inhibition of cysteine probe labeling, Protein-B",Protein-B; 2 μM,23
same,"inhibition of cysteine probe labeling, Protein-B",Protein-B; 20 μM,11
same,"inhibition of cysteine probe labeling, Protein-B",Protein-B; 50 μM,17
same,"inhibition of cysteine probe labeling, Protein-C",Protein-C; 2 μM,0
same,"inhibition of cysteine probe labeling, Protein-C",Protein-C; 20 μM,2
same,"inhibition of cysteine probe labeling, Protein-C",Protein-C; 50 μM,0
same,"inhibition of cysteine probe labeling, Protein-A",Protein-A; 2 μM,16
same,"inhibition of cysteine probe labeling, Protein-A",Protein-A; 20 μM,19
same,"inhibition of cysteine probe labeling, Protein-A",Protein-A; 50 μM,13
same,inhibition at 2 µM,CRBN-287,75%
same,inhibition at 20 µM,CRBN-287,77%
same,inhibition at 50 µM,CRBN-287,81%
same,inhibition at 2 µM,CRBN-318,70%
same,inhibition at 20 µM,CRBN-318,70%
same,inhibition at 50 µM,CRBN-318,72%

# Source: patent publication US20220298213A1, “IN VIVO ENGINEERED CEREBLON PROTEIN” (Vividion Therapeutics, Inc., priority 2018, published 2022)
